# Experimental data reported in patent publication US20090111824A1, “AMIDE LINKED HETEROAROMATIC DERIVATIVES AS MODULATORS OF MGLUR5” (AstraZeneca AB, priority 2007, published 2009).
# Assays:
# [1] = target: T1, human mGluR5d (Homo sapiens, UniProt P41594); experiment: FLIPR assay, functional assessment of mGluR5 antagonism (intracellular calcium mobilization); type: cell-based; conditions: cells expressing human mGluR5d; read-out: FLIPR hmGluR5d
# T1 construct: expressed in transfected cells; The cells are kept under Hygromycin B and Zeocin selection; The separate IP3 assay names GHEK cells
# T1 sequence (P41594 21-942 isoform P41594-3 limits assumed): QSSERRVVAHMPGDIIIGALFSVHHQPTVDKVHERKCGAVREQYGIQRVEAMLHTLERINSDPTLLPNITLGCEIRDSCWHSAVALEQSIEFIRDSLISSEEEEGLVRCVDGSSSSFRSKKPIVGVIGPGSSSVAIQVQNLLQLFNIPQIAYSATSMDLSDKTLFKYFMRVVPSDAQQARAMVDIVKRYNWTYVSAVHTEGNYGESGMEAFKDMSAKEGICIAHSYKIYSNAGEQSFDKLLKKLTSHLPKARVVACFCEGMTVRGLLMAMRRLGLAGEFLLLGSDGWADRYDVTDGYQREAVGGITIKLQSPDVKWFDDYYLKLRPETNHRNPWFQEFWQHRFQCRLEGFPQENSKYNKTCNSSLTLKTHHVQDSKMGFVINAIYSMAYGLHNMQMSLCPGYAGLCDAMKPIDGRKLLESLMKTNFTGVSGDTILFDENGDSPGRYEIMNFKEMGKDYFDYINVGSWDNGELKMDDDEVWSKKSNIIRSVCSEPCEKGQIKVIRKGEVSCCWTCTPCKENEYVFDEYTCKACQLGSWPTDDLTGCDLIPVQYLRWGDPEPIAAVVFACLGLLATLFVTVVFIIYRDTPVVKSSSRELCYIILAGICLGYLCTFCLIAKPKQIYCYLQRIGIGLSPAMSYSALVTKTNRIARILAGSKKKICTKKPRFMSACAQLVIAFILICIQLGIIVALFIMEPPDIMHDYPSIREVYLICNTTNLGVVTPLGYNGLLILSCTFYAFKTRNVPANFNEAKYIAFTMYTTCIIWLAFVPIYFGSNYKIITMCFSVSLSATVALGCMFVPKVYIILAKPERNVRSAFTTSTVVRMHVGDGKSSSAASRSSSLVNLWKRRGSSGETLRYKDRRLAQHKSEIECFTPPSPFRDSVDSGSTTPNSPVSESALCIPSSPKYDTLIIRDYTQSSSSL
# Description: Functional Assessment of mGluR5 Antagonism in Cell Lines Expressing mGluR5D
# The properties of the compounds of the invention can be analyzed using standard assays for pharmacological activity. Examples of glutamate receptor assays are well known in the art as described in for example Aramori et al., Neuron 8:757 (1992), Tanabe et al., Neuron 8:169 (1992), Miller et al., J. Neuroscience 15: 6103 (1995), Balazs, et al., J. Neurochemistry 69:151 (1997). The methodology described in these publications is incorporated herein by reference. Conveniently, the compounds of the invention can be studied by means of an assay (FLIPR) that measures the mobilization of intracellular calcium, [Ca^2+]i in cells expressing mGluR5 or another assay (IP3) that measures inositol phosphate turnover.
# Cells expressing human mGluR5d as described in WO97/05252 cultured in a mixture of high glucose DMEM with Glutamax (31966-021)(500 mL), 10% dialyzed fetal bovine serum (Hyclone #SH30079.03)(56 mL), 200 μg/mL Hygromycin B (Invitrogen 45-0430, 50 mg/mL)(2.2 mL), 200 μg/mL Zeocin (Invitrogen #R250-01; 100 mg/l mL)(1.1 mL) are seeded at a density of 100,000 cells per well on collagen coated clear bottom 96-well plates with black sides and cells were allowed to adhere over night before experiments. All assays are done in a buffer containing 146 mM NaCl, 5 mM KCl, 1 mM MgCl2, 1 mM CaCl2, 20 mM HEPES, 1 mg/mL glucose and 1 mg/mL BSA Fraction IV (pH 7.4). Cell cultures in the 96-well plates are loaded for 60 minutes in the above mentioned buffer containing 6 μM of the acetoxymethyl ester form of the fluorescent calcium indicator fluo-3 (Molecular Probes, Eugene, Oreg.) in 0.025% pluronic acid (a proprietary, non-ionic surfactant polyol—CAS Number 9003-11-6). […] The fluorescence signal is sampled 50 times at 1-second intervals followed by 3 samples at 5-second intervals immediately after each of the two additions. Responses are measured as the difference between the peak heights of the response to agonist, less the background fluorescence within the sample period. […]
# [2] = Determination of brain to plasma ratio in rat; type: in vivo; conditions: brain and plasma, female Sprague Dawley rats, read-out: Brain/Plasma Ratio of compound in Rat
# Description: Brain to plasma ratios are estimated in female Sprague Dawley rats. The compound is dissolved in water or another appropriate vehicle. For determination of brain to plasma ratio the compound is administrated as a subcutaneous, or an intravenous bolus injection, or an intravenous infusion, or an oral administration. At a predetermined time point after the administration a blood sample is taken with cardiac puncture. The rat is terminated by cutting the heart open, and the brain is immediately retained. The blood samples are collected in heparinized tubes and centrifuged within 30 minutes, in order to separate the plasma from the blood cells. The plasma is transferred to 96-well plates and stored at −20° C. until analysis. The brains are divided in half, and each half is placed in a pre-tarred tube and stored at −20° C. until analysis. Prior to the analysis, the brain samples are thawed and 3 mL/g brain tissue of distilled water is added to the tubes. The brain samples are sonicated in an ice bath until the samples are homogenized. Both brain and plasma samples are precipitated with acetonitrile. After centrifugation, the supernatant is diluted with 0.2% formic acid. Analysis is performed on a short reversed-phase HPLC column with rapid gradient elution and MSMS detection using a triple quadrupole instrument with electrospray ionisation and Selected Reaction Monitoring (SRM) acquisition. Liquid-liquid extraction may be used as an alternative sample clean-up. The samples are extracted, by shaking, to an organic solvent after addition of a suitable buffer. An aliquot of the organic layer is transferred to a new vial and evaporated to dryness under a stream of nitrogen. After reconstitution of the residuals the samples are ready for injection onto the HPLC column.
IC50 [1],Kp [2],SMILES
37 nM,0.26,"CN(C(=O)c1cc(-c2cccc(Cl)c2)on1)c1nnc(-c2ccncc2)n1C [Example 1, 5-(3-Chlorophenyl)-N-methyl-N-(4-methyl-5-pyridin-4-yl-4H-1,2,4-triazol-3-yl)isoxazole-3-carboxamide]"
62 nM,0.19,"CN(C(=O)c1cc(-c2cccc(Cl)c2)on1)c1nnc(-c2cn[nH]c(=O)c2)n1C [Example 3, 5-(3-Chlorophenyl)-N-methyl-N-[4-methyl-5-(6-oxo-1,6-dihydropyridazin-4-yl)-4H-1,2,4-triazol-3-yl]isoxazole-3-carboxamide]"
567 nM,< 0.01,"Cc1cccc(-n2nnc(C(=O)N(C)c3nnc(-c4cn[nH]c(=O)c4)n3C)n2)c1 [Example 4, N-Methyl-N-[4-methyl-5-(6-oxo-1,6-dihydropyridazin-4-yl)-4H-1,2,4-triazol-3-yl]-2-(3-methylphenyl)-2H-tetrazole-5-carboxamide]"
